Consider ten molecules from patent US10941399B2, “Methods and compositions for gene-specific demethylation by DNA methyltransferase (DNMT)-RNA interaction” (Beth Israel Deaconess Medical Center, Inc., priority 2011, dated 2021).

“Also recorded” adds a separate entry of the source. [5mC] = 5-methylcytosine

One data set relates to myeloma cells. To be noted: cited from earlier work.
For another data set, the system named is HL-60 cells. As to the kind of experiment: DRB and ML-60218 treatment of HL-60 cells, transcript levels by Taqman qRT-PCR. It counts as cell-based, human. The procedure: qRT-PCR: Sybr green reactions were performed using iQ Sybr Green supermix (Biorad, Hercules, Calif.) using the following parameters: 95° C. (10 min.), 40 cycles of 95° C. (15 sec.) and 60° C. (1 min.), and 72° C. (1 min.). TaqMan analysis was performed using Hotstart Probe One-step qRT-PCR master mix (USB) at the following conditions: 50° C. (10 min.), 95° C. (2 min.), and then 40 cycles of 95° C. (15 sec.) and 60° C. (60 sec.). qRT PCR primers were located in the coding region for the mRNA (black double headed arrow) and after the polyA signal for the ecRNA (white double headed arrow) (FIG. 1A). The sequences of primers used for TaqMan real time PCR were as follows: human C/EBPa: Forward 5′-TCG GTG GACAAG AAC AG-3′ (SEQ ID NO:18), Reverse 5′-GCA GGC GGT CAT TG-3′ (SEQ ID NO:19), and Taqman Probe 5′-ACA AGGCCA AGC AGC GC-3′ (SEQ ID NO:20); ecRNA: Forward 5′-GGTTGTCTGTGGGCCAGGTCA-3′(SEQ ID NO:21), Reverse 5′-AGAGCTCATGAAAGTCAGGATTG-3′ (SEQ ID NO:22), and Taqman Probe 5′-AAT AAT ACAGCA TTT TCC CTG GCG G-3′(SEQ ID NO:23); human C/EBPγ: Forward: 5′-GGC TAG AGG AGC AGGTAC AT-3′ (SEQ ID NO:24), Reverse: 5′-GCCTGGGTATGGATAACACTA-3′ (SEQ ID NO:25), and Taqman Probe: 5′-CGACAC CAC TCA TGT CAA TGG CTG-3′ (SEQ ID NO:26); human TP73: ABI Cat. #Hs01060631_m1; 18S rRNA: ABI Cat. #4310893E; and human 5S rRNA: ABI Cat. #Hs02385257_g1. The sequences of primers used for real-time RT PCR (Sybr) were as follows: human C/EBPa: Forward: 5′-CCG CTC CTCCAC GCC TGT CCT TAG-3′ (SEQ ID NO:27) and Reverse: 5′-GCCCCACAGCCAGATCTCTAGGTC-3′ (SEQ ID NO:28); ecRNA: Forward: 5′-TCATGAGCTCTCCATCCATCCTGA-3′(SEQ ID NO:29) and Reverse: 5′-CTG GCCGAG GGT CCT GCT GGA ATC-3′ (SEQ ID NO:30); and β-ACTIN Promega Cat. #G5740.
Double thymidine block (early S-phase block): HL-60 cells were grown overnight to 70-80% confluence, washed twice with 1×PBS, and cultured in DMEM (10% FCS)+2.5 mM thymidine for 18 h (first block). Thymidine was washed out with 1×PBS, and cells were grown in DMEM (10% FCS). After 8 hours, cells were cultured in presence of thymidine for 18 h (second block) and then released as described. Synchrony was monitored by flow cytometry analysis of propidium iodide-stained cells using a LSRII flow cytometer (BD Biosciences) at the Harvard Stem Cell Institute/Beth Israel Deaconess Center flow cytometry facility.
DRB and ML-60218 treatment: After release from double thymidine block, HL-60 cells were treated with 100 μM of 5,6-Dichlorobenzimidazole 1-β-D-ribofuranoside (DRB) (Sigma Aldrich) for 1, 2, and 3 hours. HL-60 cells were treated with 25 μM ML-60218 (2-chloro-N[5-(5-chloro-3-methyl-1-benzothiophen-2-yl)-2-methylpyrazol-3-yl]benzenesulfonamide, Calbiochem®) for 24 hours. Total RNA was harvested as described above and expression levels of C/EBPa, ecRNA, and 5S were measured by Taqman qRT-PCR.

A further data set addresses DNMT1 (Homo sapiens, UniProt P26358). As to the kind of experiment: Electrophoretic gel mobility shift assays (EMSA/REMSA) and Kd determination with purified DNMT1. As to conditions: for Kd: constant oligonucleotide concentration (1 nM) titrated with increasing DNMT1, nonlinear regression, read-out: dissociation constant (Kd). On the set-up: purchased BPS Bioscience Inc. It counts as binding. The procedure: Electrophoretic gel mobility shift assays (EMSAs) and Kd determination: DNA and RNA oligonucleotides (15 pmol) were end-labeled with [γ-32P] ATP (Perkin Elmer) and T4 polynucleotide kinase (New England Biolabs). Reactions were incubated at 37° C. for 1h and then passed through G-25 spin columns (GE Healthcare) according to the manufacturer's instructions to remove unincorporated radioactivity. Labeled samples were gel-purified on 10% polyacrylamide gels. Binding reactions were carried out in 10 μL volumes in the following buffer: 5 mM Tris pH 7.4, 5 mM MgCl2, 1 mM DTT, 3% v/v glycerol, 100 mM NaCl. Various amounts of purified DNMT1 protein (BPS Bioscience Inc., 0.021-0.156 μM) were incubated with 1.1 nM of 32P-labeled dsDNA and ss/ds RNAs. In the competitive assay, a fixed amount of protein and increasing amounts of competitors (dsDNA or poly (dI-dC)) were used. All reactions were assembled on ice and then incubated at room temperature. Samples were loaded onto 6% native polyacrylamide gels (0.5×TBE) at 4° C. for 3 h at 140 V. Gels were dried and exposed to X-ray film and a PhosphorImager screen. Data were analyzed with ImageQuant software. For affinity assays, the percent shifted species was determined as follows: the migration of the labeled DNA in this reaction was defined as zero percent shifted and the ratio of the PhosphorImager counts in the area of the lane above this band to the total counts in the lane was defined as background and subtracted from all other lanes. This band represented total input. Subsequent lanes containing DNMT1-nucleic acid complexes were treated identically, and the percentage complex formation was calculated as follows: [Input-(free probe for each lane+background/input)]. All experiments contained a control reaction lacking DNMT1. The percentage complex formation was plotted as a function of DNMT1 concentration using nonlinear regression analysis using Prism 4.0a.
A general note: A gel shift assay detects complexes by their altered migration in electrophoresis.

Where [1] appears, read: 100 μM DRB, 1, 2, 3 h after release from double thymidine block.

For orientation: Kd means the equilibrium constant for the complex coming apart.

Chain of DNMT1 (P26358 whole entry): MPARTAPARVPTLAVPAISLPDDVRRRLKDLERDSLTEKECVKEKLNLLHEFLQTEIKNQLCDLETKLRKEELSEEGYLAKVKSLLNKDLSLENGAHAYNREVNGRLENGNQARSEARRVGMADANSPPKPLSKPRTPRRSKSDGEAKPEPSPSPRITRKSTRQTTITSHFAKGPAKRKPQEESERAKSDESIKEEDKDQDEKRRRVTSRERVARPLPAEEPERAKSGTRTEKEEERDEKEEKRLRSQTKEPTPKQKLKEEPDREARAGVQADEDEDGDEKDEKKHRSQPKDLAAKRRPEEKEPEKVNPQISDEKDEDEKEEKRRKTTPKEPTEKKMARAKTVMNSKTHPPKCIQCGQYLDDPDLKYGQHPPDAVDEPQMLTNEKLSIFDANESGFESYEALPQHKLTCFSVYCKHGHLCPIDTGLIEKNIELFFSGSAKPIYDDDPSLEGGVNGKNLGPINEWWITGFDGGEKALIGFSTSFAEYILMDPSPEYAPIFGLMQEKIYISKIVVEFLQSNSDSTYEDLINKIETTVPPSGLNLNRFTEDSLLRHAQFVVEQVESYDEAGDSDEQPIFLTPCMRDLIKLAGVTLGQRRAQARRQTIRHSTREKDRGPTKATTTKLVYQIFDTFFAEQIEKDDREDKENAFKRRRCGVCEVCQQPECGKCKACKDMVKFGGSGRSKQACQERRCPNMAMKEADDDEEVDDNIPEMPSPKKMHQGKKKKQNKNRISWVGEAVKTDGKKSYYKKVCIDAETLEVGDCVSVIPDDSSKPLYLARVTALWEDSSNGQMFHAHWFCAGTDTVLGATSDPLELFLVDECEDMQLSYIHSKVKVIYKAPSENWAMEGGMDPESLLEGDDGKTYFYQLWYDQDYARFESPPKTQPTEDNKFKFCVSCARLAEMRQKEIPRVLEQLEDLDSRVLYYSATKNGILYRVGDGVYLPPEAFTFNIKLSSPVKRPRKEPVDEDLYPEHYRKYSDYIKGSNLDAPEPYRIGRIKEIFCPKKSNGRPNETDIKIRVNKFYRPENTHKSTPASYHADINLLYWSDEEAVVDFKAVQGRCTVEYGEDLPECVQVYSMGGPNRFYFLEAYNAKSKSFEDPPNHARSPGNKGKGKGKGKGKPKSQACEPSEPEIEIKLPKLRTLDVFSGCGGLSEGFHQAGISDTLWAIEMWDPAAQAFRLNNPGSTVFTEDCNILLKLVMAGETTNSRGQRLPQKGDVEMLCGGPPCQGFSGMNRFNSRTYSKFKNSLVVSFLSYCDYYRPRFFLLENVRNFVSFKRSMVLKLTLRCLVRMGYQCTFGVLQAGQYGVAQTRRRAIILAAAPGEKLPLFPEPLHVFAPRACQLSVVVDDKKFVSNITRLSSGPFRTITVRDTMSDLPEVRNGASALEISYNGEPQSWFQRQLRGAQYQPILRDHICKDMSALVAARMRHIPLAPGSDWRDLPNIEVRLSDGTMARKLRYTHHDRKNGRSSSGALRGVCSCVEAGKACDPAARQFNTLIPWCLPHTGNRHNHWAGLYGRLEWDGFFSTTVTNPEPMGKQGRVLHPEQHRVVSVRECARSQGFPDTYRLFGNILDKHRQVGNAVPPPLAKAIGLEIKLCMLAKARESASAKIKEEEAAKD

Take `Nc1ncn([C@H]2C[C@H](O)[C@@H](CO)O2)c(=O)n1` [5-aza-2′-deoxycytidine]: in the data set on myeloma cells, the PU.1 expression entry is “upregulation” and the “growth of myeloma cells” value was “growth arrest”.
For the molecule `OC[C@H]1O[C@@H](n2cnc3cc(Cl)c(Cl)cc32)[C@H](O)[C@@H]1O` [DRB, 5,6-Dichlorobenzimidazole 1-β-D-ribofuranoside], in the data set with HL-60 cells (setting [1]), the “C/EBPa mRNA expression level” value is listed as “strong down-regulation” and the ecRNA expression level entry is given as “no decrease; also recorded: did not reduce”.
For `Cc1c(-c2cc(NS(=O)(=O)c3ccccc3Cl)n(C)n2)sc2ccc(Cl)cc12` [ML-60218, 2-chloro-N[5-(5-chloro-3-methyl-1-benzothiophen-2-yl)-2-methylpyrazol-3-yl]benzenesulfonamide], in the data set with HL-60 cells (25 μM ML-60218, 24 hours), the “5S rRNA level” value was “significantly reduced”, the “C/EBPa mRNA level” value is reported as “little effect; also recorded: only moderately affected” and the ecRNA level result is listed as “marked down-regulation; also recorded: significantly reduced”.
Take `NCCCNCCCCNCCCN` [spermine]: at DNMT1 (REMSA with increasing concentrations of spermine), the “effect of spermine on RNA-DNMT1 binding” value was “Only a thousand-fold molar excess of spermine began to moderately affect the binding; also recorded: no significant changes in binding were observed”.
Regarding “R04: ssRNA oligonucleotide of C/EBPa ecRNA, positions 4777-4798 of SEQ ID NO:8 (SEQ ID NO:63), lacking stem-and-loop-like structures (UCACACACACCGCAGCUCCAGA; chemistry not given here; listed as Homo sapiens)”, in the data set with DNMT1, the “DNMT1 binding affinity in REMSA (in words)” value is “did not display the same binding affinity as folded RNA; also recorded: lower DNMT1 affinity compared to R05”.
Consider “RNA: folded ssRNA oligonucleotide of C/EBPa ecRNA, positions 4627-4648 of SEQ ID NO:8 (SEQ ID NO:62) (CUGAGGCCUUGGCGAGGCUUCU; chemistry not given here; listed as Homo sapiens)”, for which the Kd in the data set with DNMT1 (EMSA) was determined as 45 nM. The “DNMT1 concentration at which initial complex is formed” value with DNMT1 (EMSA, increasing DNMT1 concentrations) was below 0.013 µM. Moreover, the “strength of DNMT1 complex with RNA compared to hmDNA and mDNA” value in the data set with DNMT1 (ratio versus hmDNA and mDNA) was determined as 3 fold. In addition, the “strength of DNMT1 complex with RNA compared to umDNA” value in the data set with DNMT1 (ratio versus umDNA) amounted to 2 fold.
On to “hmDNA: hemimethylated dsDNA probe (SEQ ID NOs:65, 72) (chain 1 CTGAGGCCTTGGCGAGGCTTCT; chain 2 AGAAGCCTCGCCAAGGCCTCAG; chain 1: DNA, [5mC] at 13, backbone and methylation of C not given here; chain 2: DNA, backbone not given here; listed as Homo sapiens)”, for which the equilibrium dissociation constant (Kd) with DNMT1 (EMSA) turned out to be 140 nM.
As for “mDNA: methylated dsDNA probe (SEQ ID NOs:66, 73) (chain 1 CTGAGGCCTTGGCGAGGCTTCT; chain 2 AGAAGCCTCGCCAAGGCCTCAG; chain 1: DNA, [5mC] at 13, backbone not given here; chain 2: DNA, [5mC] at 9, backbone not given here; listed as Homo sapiens)”, in the data set with DNMT1 (EMSA), the Kd is 110 nM.
On to “mutated R01: R01 with C to U substitutions in CpG dinucleotides (SEQ ID NO:69) (CUGGGAUGCAGGUGGUGUCAGGC; chemistry not given here; listed as Homo sapiens)”, for which, in the data set with DNMT1 (stem-and-loop-like structure preserved), the “DNMT1 binding after C to U substitution of CpG dinucleotides” value is “not affected”.
Turning to “umDNA: unmethylated dsDNA probe (SEQ ID NOs:64, 71) (chain 1 CTGAGGCCTTGGCGAGGCTTCT; chain 2 AGAAGCCTCGCCAAGGCCTCAG; DNA, backbone not given here; listed as Homo sapiens)”, the Kd in the data set with DNMT1 (EMSA) came out at 82 nM.
